One data set deals with Spirulina platensis. The data set can be described thus: Growth of Spirulina platensis (dry algae density) in growth medium combined with absorbent liquid loaded with CO2. The format is cell-based. On the procedure:
For the absorbent liquids standard procedures were used to prepare the solvent solutions. For the absorbent liquids stock solutions with a molarity of 2 M were prepared. To test the growth, the molarities of the solutions were adjusted at the start of the experiments by adding a given amount of the aqueous growth medium.
The growth of the algae was tested with different solutions composed from different ratios (volume based) of growth media and absorbent liquid.
Subsequently, a number of dedicated experiments were performed were a specific algae (and growth medium) was combined with a given absorbent liquid in the presence of CO2. The CO2 was added in two different ways.
In the first way, so-called batch operation, the algae, growth medium, and the absorbent liquid (with a given molarity) were prepared in a beaker (of about 1 l) or reactor (available with a volume of 10 l and 20 l) and the CO2 was bubbled through for at least 12 h to saturate the solution with a high flow rate (in the order of 200 ml/min).
During the experiments the pH was measured on a daily basis.
At given times a small sample was taken from the beaker (or reactor) to analyse the micro-algae. The volume of the sample was determined, the sample was then dried in an oven, and subsequently the mass determined (by weighing) to obtain the dry algae density (g/l).
For various tests, Arthrospira (Spirulina) platensis was used. The Spirulina strain is kept in Schlösser's medium (Schlösser, Berichten der Deutchen Botanischen Gesellschaft 1982, 95, 181-276). Schlösser's medium contained per litre: 13.6 g of NaHCO3, 4.03 g of Na2CO3, 0.5 g of K2HPO4, 2.5 g of NaNO3, 1 g of K2SO4, 1 g of NaCl, 0.2 g of MgSO4.7H2O, 0.04 g of CaCl2.2H2O, 0.01 g of FeSO4.7H2O, and 0.08 g of EDTA (ethylenediaminetetraacetic). Some micronutrients are added as well.
The overall composition based on 1 l of total solution was obtained by combining: 400 ml of the growth medium, for example the Schlösser's medium, with 400 ml of an aqueous amino acids salts, with as ‘counter ion’ potassium hydroxide, solution, where the amount of amino acid was varied between 0.1 M and 1 M. Subsequently, 200 ml of algae solution was added.

The nature of data set [1]: CO2 uptake in absorbent liquid in a sealed beaker fed continuously with flue gas, online CO2 analyser. Type of data set: physicochemical. Conditions: 0.2 M taurine, 4 l liquid, flue gas 7.2% CO2, total period 100 000 s. As to the method: CO2 is fed continuously to a sealed beaker with water and with an absorp absorbent liquid (0.2 M taurine). The height of the liquids is 30 cm the total amount of liquids is 4 l. For water the uptake, that is the amount of CO2, in %, leaving the beaker as function of the time, is given for two flow rates. […] In FIG. 4, the CO2 concentration, in %, leaving the beaker as function of time is depicted. Experiments were conducted in a sealed beaker, where flue gas was fed, and where the gaseous stream leaving the beaker was analysed with an online CO2 analyser. The composition of the ‘flue gas’ was 7.2% CO2 and […].

“Also recorded” adds a separate entry of the source.

Consider one compound from US20140318000A1, “COMBINING ALGAE CULTIVATION AND CO2 CAPTURE” (Nederlandse Organisatie voor …, priority 2011, published 2014).

On to `NCCS(=O)(=O)O` [taurine, 2-aminoethanesulphonic acid], for which, in the data set with Spirulina platensis (Spirulina platensis, 0.1 M taurine as absorbent liquid), the dry algae density result was “about 2 g/l”. Moreover, in the data set on Spirulina platensis (Spirulina platensis, 0.2 M taurine, solution saturated with CO2 at start, before reloading at day 20), the “dry algae density, initial constant level” value is “about 1.4 g/l”. Further, the “final dry algae density” value in the data set with Spirulina platensis (Spirulina, 0.2 M taurine initially saturated with CO2, after about 15 days) stood at 2.1 g/L. For the same compound, the “dry algae density after growth period” value in the data set with Spirulina platensis (Spirulina, 0.2 M taurine initially saturated with CO2, increase from 0.25 g/l in about 5 days after start-up) stood at 1.7 g/L. Further, the “CO2 leaving the beaker” value in data set [1] was “no CO2 was measured; also recorded: almost no CO2 is leaving the beaker”.
